Data as given in patent US11524960B2, “Heterobicyclic inhibitors of MAT2A and methods of use for treating cancer” (AGIOS PHARMACEUTICALS, INC., priority 2018, dated 2022).

Assays:
[1] = test system: SAM in HCT116 human colon carcinoma cell line engineered to delete the MTAP gene (MTAP −/−); assay: Cellular assay of target engagement (SAM) by LC-MS/MS; assay type: cell-based; details: Homo sapiens, HCT-116, 72 h, IC50 score, read-out: Cell 72 h SAM Inhibition (MTAP −/−; Example 276)
In short: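 MTAP-deleted HCT116 cells were dosed 24 h after plating with a 10-point 3-fold compound series in DMSO, then incubated 72 h at 37 °C/5% CO2. Cells were extracted in cold 80% methanol with acetic acid and d3-SAM internal standard. SAM was quantified by LC-MS/MS MRM (m/z 399.2→250.1).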

HCT116 MTAP+/+ = assay: Inhibition of cellular proliferation (Cell Titer Glo), HCT116 MTAP+/+; assay type: cell-based, human; details: Homo sapiens, HCT-116, 96 h, 4 days, IC50 score, read-out: 4 Day Relative Growth Inhibition (MTAP +/+; Example 277)
In short: (§1)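 Isogenic HCT116 lines, MTAP+/+ and MTAP−/−, treated 24 h after plating with 10-point 3-fold compound dilutions including DMSO only, then grown 4 days at 37 °C/5% CO2. Cell Titer Glo ATP luminescence, blank-subtracted and normalised to 0.2% DMSO control, gave percent change in proliferation versus log concentration.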

HCT116 MTAP−/− = assay: Inhibition of cellular proliferation (Cell Titer Glo), HCT116 MTAP−/−; assay type: cell-based, human; details: Homo sapiens, HCT-116, 96 h, 4 days, IC50 score, read-out: 4 Day Relative Growth Inhibition (MTAP −/−; Example 277)
In short: as §1

MAT2A homodimer = biological target: T1, MAT2A homodimer (Homo sapiens, UniProt P31153); assay: Biochemical assay: inhibition of MAT2A (phosphate release, PiColorLock Gold); details: MAT2A IC50 score; read-out: Enzyme Inhibition (Example 275)
T1 construct: inferred from Ni sepharose purification and imidazole elution; made in house; host or cells: Sf9 insect cells, recombinant baculovirus (Bac to Bac, pFASTBAC1)
T1 sequence (P31153 whole entry): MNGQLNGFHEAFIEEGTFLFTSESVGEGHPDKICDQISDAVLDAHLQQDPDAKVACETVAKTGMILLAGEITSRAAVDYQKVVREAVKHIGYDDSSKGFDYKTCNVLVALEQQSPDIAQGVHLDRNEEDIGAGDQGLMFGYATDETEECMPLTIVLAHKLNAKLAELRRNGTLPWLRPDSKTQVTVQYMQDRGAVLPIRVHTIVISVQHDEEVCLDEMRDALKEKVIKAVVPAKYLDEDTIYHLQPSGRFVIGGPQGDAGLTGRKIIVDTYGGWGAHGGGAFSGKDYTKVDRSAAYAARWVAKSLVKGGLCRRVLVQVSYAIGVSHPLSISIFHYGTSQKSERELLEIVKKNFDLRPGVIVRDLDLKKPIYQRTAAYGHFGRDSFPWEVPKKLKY
In short: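 Baculovirus/Sf9-expressed, Ni-purified MAT2A at 4 µg/mL was preincubated with compound for 60 min at 25 °C in 50 mM Tris pH 8.0, 50 mM KCl, 15 mM MgCl2, 0.3 mM EDTA, 0.005% BSA. Substrate mix (500 μM ATP, 400 μM L-methionine) was added and the reaction ran 60 min at 25 °C. Phosphate released stoichiometrically with SAM was measured colorimetrically against a phosphate standard curve.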

## CCOc1ncc2cn(-c3ccc4ncn(C)c4c3)c(=O)c(-c3ccc(Cl)cc3)c2n1 [Example 269, 8-(4-chlorophenyl)-2-ethoxy-6-(1-methyl-1H-benzo[d]imidazol-6-yl)pyrido[4,3-d]pyrimidin-7(6H)-one]
[1]
  IC50: < 100 nM
HCT116 MTAP+/+
  IC50: > 10000 nM
HCT116 MTAP−/−
  IC50: 100 to 10000 nM
MAT2A homodimer
  IC50: < 100 nM

## O=c1c(-c2ccc(OC(F)F)cc2)c2nc(NC3CC3)ncc2cn1-c1ccc2ncccc2c1 [Example 179, 2-(cyclopropylamino)-8-(4-(difluoromethoxy)phenyl)-6-(quinolin-6-yl)pyrido[4,3-d]pyrimidin-7(6)-one]
[1]
  IC50: 100 to 1000 nM
HCT116 MTAP+/+
  IC50: > 10000 nM
HCT116 MTAP−/−
  IC50: 100 to 10000 nM
MAT2A homodimer
  IC50: < 100 nM

## Cn1cc2cc(-n3cc4ncc(OCC(F)F)nc4c(-c4ccc(OC(F)F)cc4)c3=O)ccc2n1 [Example 139-A, 2-(2,2-difluoroethoxy)-8-(4-(difluoromethoxy)phenyl)-6-(2-methyl-2H-indazol-5-yl)pyrido[3,4-b]pyrazin-7(6H)-one]
[1]
  IC50: < 100 nM
HCT116 MTAP+/+
  IC50: 100 to 10000 nM
HCT116 MTAP−/−
  IC50: < 100 nM
MAT2A homodimer
  IC50: < 100 nM

## Cn1nnc2ccc(-n3cc4ccc(NCC(F)(F)F)nc4c(-c4ccc(Cl)cc4)c3=O)cc21 [Example 235, 8-(4-chlorophenyl)-6-(1-methyl-1H-benzo[d][1,2,3]triazol-6-yl)-2-(2,2,2-trifluoroethylamino)-1,6-naphthyridin-7(6H)-one]
[1]
  IC50: < 100 nM
HCT116 MTAP+/+
  IC50: > 10000 nM
HCT116 MTAP−/−
  IC50: < 100 nM
MAT2A homodimer
  IC50: < 100 nM

## CCNc1ncc2cn(-c3ccc4nn(C)cc4c3)c(=O)c(-c3ccc(Cl)cc3)c2n1 [Example 169, 8-(4-chlorophenyl)-2-(ethylamino)-6-(2-methyl-2H-indazol-5-yl)pyrido[4,3-d]pyrimidin-7(6H)-one]
[1]
  IC50: < 100 nM
HCT116 MTAP+/+
  IC50: > 10000 nM
HCT116 MTAP−/−
  IC50: < 100 nM
MAT2A homodimer
  IC50: < 100 nM

## CCNc1ncc2cn(-c3ccc4nn(C)cc4c3)c(=O)c(-c3ccc(OC(F)F)cc3)c2n1 [Example 171, 8-(4-(difluoromethoxy)phenyl)-2-(ethylamino)-6-(2-methyl-2H-indazol-5-yl)pyrido[4,3-d]pyrimidin-7(6H)-one]
[1]
  IC50: < 100 nM
HCT116 MTAP+/+
  IC50: > 10000 nM
HCT116 MTAP−/−
  IC50: < 100 nM
MAT2A homodimer
  IC50: < 100 nM

## O=c1c(-c2ccc(Cl)cc2)c2nc(NCC(F)(F)F)ncc2cn1-c1ccc2c(c1)CCO2 [Example 133, 8-(4-chlorophenyl)-6-(2,3-dihydrobenzofuran-5-yl)-2-(2,2,2-trifluoroethylamino)pyrido[4,3-d]pyrimidin-7(6H)-one]
[1]
  IC50: < 100 nM
HCT116 MTAP+/+
  IC50: > 10000 nM
HCT116 MTAP−/−
  IC50: < 100 nM
MAT2A homodimer
  IC50: < 100 nM

## CC(C)(O)Cn1cc2cc(-n3cc4cnc(NCC(F)(F)F)nc4c(-c4ccc(Cl)cc4)c3=O)ccc2n1 [Example 101-A]
[1]
  IC50: < 100 nM
HCT116 MTAP+/+
  IC50: > 10000 nM
HCT116 MTAP−/−
  IC50: < 100 nM
MAT2A homodimer
  IC50: < 100 nM

## CCOc1ccc2cn(-c3ccc4ncccc4c3)c(=O)c(-c3ccc(C4CC4)nc3)c2n1 [Example 231, 8-(6-cyclopropylpyridin-3-yl)-2-ethoxy-6-(quinolin-6-yl)-1,6-naphthyridin-7(6H)-one]
[1]
  IC50: < 100 nM
HCT116 MTAP+/+
  IC50: > 10000 nM
HCT116 MTAP−/−
  IC50: 100 to 10000 nM
MAT2A homodimer
  IC50: < 100 nM

## CCOc1ccc2cn(-c3ccc4nn(C)cc4c3)c(=O)c(-c3cnc(C(F)(F)F)nc3)c2n1 [Example 119-A]
[1]
  IC50: < 100 nM
HCT116 MTAP+/+
  IC50: 100 to 10000 nM
HCT116 MTAP−/−
  IC50: < 100 nM
MAT2A homodimer
  IC50: < 100 nM

## CCOc1ccc2cn(-c3ccc4nn(C)nc4c3)c(=O)c(-c3ccc(Cl)cc3)c2n1 [Example 106-A]
[1]
  IC50: < 100 nM
HCT116 MTAP+/+
  IC50: > 10000 nM
HCT116 MTAP−/−
  IC50: 100 to 10000 nM
MAT2A homodimer
  IC50: < 100 nM

## CCOc1ccc2cn(-c3ccc4nn(C)cc4c3)c(=O)c(-c3ccc(OC(F)F)cc3)c2n1 [Example 251, 8-(4-(difluoromethoxy)phenyl)-2-ethoxy-6-(2-methyl-2H-indazol-5-yl)-1,6-naphthyridin-7(6H)-one]
[1]
  IC50: < 100 nM
HCT116 MTAP+/+
  IC50: 100 to 10000 nM
HCT116 MTAP−/−
  IC50: < 100 nM
MAT2A homodimer
  IC50: < 100 nM

## CCOc1ccc2cn(-c3ccc4nn(C)cc4c3)c(=O)c(-c3ccc(Cl)cc3)c2n1 [Example 247, 8-(4-chlorophenyl)-2-ethoxy-6-(2-methyl-2H-indazol-5-yl)-1,6-naphthyridin-7(6H)-one]
[1]
  IC50: < 100 nM
HCT116 MTAP+/+
  IC50: 100 to 10000 nM
HCT116 MTAP−/−
  IC50: < 100 nM
MAT2A homodimer
  IC50: < 100 nM
